Assay results as given in PMC7229842, “Molecular basis of the multifaceted functions of human leucyl-tRNA synthetase in protein synthesis and beyond” (Nucleic Acids Research, 2020).
pIC50: −log10 of the molar value.

How the values were obtained:
[1] = target: T1, Human cytosolic leucyl-tRNA synthetase (hcLRS) (Homo sapiens, UniProt Q9P2J5); assay: X-ray co-crystal structure at […] Å (as AN6426-AMP); aminoacylation inhibition IC50; assay type: biochemical
T1 construct: gene LARS1
Target sequence in this assay (Q9P2J5 whole entry): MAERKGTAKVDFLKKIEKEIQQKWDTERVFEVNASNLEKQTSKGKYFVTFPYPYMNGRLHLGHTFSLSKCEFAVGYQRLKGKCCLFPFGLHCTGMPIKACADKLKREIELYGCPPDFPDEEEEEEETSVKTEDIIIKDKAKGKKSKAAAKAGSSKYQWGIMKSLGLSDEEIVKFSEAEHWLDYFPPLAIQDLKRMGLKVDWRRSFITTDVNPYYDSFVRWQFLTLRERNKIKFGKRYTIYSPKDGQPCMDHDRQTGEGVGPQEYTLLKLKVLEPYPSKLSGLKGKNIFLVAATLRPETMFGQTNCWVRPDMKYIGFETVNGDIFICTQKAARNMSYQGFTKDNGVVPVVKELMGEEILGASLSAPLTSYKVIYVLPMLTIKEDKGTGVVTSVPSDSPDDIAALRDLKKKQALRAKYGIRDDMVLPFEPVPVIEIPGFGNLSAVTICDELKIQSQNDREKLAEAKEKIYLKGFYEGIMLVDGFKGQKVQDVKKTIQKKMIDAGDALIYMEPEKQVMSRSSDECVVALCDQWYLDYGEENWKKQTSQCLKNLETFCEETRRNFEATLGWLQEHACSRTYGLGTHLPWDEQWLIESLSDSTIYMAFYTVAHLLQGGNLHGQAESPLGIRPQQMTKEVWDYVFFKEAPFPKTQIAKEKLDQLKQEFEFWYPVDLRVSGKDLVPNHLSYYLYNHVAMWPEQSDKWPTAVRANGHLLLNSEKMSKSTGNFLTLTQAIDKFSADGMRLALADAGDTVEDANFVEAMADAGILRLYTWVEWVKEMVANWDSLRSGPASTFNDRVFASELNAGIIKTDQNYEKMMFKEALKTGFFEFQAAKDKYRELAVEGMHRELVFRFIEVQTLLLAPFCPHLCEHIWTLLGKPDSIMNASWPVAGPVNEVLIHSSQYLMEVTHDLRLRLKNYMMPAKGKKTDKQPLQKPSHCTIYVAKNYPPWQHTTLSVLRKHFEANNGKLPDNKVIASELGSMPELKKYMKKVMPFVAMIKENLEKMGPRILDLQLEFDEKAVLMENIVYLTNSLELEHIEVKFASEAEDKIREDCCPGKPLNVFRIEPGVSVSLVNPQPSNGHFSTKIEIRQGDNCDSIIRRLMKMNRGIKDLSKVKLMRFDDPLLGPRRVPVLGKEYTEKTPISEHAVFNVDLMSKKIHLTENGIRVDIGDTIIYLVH

[2] = target: T1, Human cytosolic leucyl-tRNA synthetase (hcLRS); assay: X-ray co-crystal structure, […] Å; assay type: binding
Target sequence in this assay (Q9P2J5 1-1070): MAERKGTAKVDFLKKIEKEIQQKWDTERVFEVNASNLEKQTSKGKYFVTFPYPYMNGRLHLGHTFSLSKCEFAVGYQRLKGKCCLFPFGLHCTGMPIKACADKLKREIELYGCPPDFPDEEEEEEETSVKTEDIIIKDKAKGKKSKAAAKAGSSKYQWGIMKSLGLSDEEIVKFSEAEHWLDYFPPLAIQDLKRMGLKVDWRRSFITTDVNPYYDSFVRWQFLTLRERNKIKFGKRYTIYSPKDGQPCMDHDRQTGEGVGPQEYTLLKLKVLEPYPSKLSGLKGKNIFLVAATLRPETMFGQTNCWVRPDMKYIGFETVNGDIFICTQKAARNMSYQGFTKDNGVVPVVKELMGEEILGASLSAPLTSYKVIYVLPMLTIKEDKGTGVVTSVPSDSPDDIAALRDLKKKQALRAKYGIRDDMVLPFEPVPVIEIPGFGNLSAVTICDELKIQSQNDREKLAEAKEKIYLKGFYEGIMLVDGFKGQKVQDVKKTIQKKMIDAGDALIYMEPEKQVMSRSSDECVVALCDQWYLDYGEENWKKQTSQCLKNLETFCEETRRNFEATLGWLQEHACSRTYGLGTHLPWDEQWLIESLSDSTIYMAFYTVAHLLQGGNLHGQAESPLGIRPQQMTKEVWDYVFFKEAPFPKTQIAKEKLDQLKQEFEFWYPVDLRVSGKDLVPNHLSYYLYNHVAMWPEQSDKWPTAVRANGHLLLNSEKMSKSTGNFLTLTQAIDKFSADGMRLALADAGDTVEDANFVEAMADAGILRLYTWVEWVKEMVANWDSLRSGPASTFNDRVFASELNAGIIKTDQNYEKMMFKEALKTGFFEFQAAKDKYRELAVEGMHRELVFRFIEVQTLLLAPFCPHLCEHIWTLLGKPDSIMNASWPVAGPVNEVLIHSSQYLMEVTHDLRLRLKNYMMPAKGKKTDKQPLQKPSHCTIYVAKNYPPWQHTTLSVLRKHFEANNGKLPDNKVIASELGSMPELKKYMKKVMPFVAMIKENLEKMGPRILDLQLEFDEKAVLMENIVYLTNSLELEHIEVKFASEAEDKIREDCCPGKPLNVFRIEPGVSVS

[3] = target: T1, Human cytosolic leucyl-tRNA synthetase (hcLRS); assay: aminoacylation assay with [3H]-Leu and tRNA^Leu(CAG), purified hcLRS; assay type: biochemical
Target sequence in this assay (Q9P2J5 whole entry): as the sequence (Q9P2J5 whole entry) above

CCOc1ccc(Cl)c2c1B(O)OC2CN (stereo not drawn) [AN6426]
pIC50 [1]: 5.11

CC(C)C[C@H](N)C(=O)NS(=O)(=O)OC[C@H]1O[C@@H](n2cnc3c(N)ncnc32)[C@H](O)[C@@H]1O [LeuAMS]
X-ray co-crystal structure, 2.5 Å [2]: LeuAMS, a stable analog of LeuAMP, was bound in the aminoacylation active site in our structure

OB1OCc2cc(F)ccc21 [tavaborole]
pIC50 [3]: 4.83
